Test results taken from patent US10543166B2, “Implantable drug delivery devices and methods of making the same” (TARIS Biomedical LLC, priority 2009, dated 2020).

Columns and labels:
[1] = In vitro drug release through both the wall and apertures of silicone tube devices; assay type: physicochemical; details: in vitro in water at about 37° C
Description: Another study was performed to investigate the feasibility of delivering drug from a device through both a wall of a drug reservoir and from an aperture in the wall of the drug reservoir. Devices were formed form silicone tubes having a length of about 3 cm. The devices were loaded with solid drug tablets of lidocaine base, for a total payload of about 60 mg. […] The devices were tested in vitro in water at about 37° C.

[2] = In vitro drug release by diffusion through the wall of silicone tube devices; assay type: physicochemical; details: silicone tube ID about 0.060 in, OD 0.076 in, length about 3 cm; solid tablets, payload about 60 mg; no aperture; in vitro in water at about 37° C
Description: A study was performed to determine the feasibility of delivering drug through the wall of a drug reservoir via diffusion. Devices were formed form silicone tubes having an inner diameter of about 0.060 inches, an outer diameter of 0.076 inches, and a length of about 3 cm. The devices were loaded with solid drug tablets of lidocaine, for a total payload of about 60 mg. Some of the devices included an aperture formed through the tube wall, the aperture having a diameter of 150 μm. These devices were loaded with solid tablets of either lidocaine hydrochloride monohydrate or a combination of lidocaine hydrochloride monohydrate and lidocaine base. […] The devices were tested in vitro in water at about 37° C.

Compound: CCN(CC)CC(=O)Nc1c(C)cccc1C [lidocaine base]
- effect of apertures on release rate ([1]; devices with 0, 1 (150 μm), 2, 30 or 60 (360 μm) apertures): release rate can be increased by adding apertures to the device
- release from a silicone tube without any apertures ([1]; silicone tubes about 3 cm, solid tablets, payload about 60 mg): can be released from a silicone tube without any apertures
- delivery of drug via diffusion through a silicone wall without an aperture [2]: feasible to deliver drug via diffusion through a silicone wall without an aperture
